# Assay results published in US6827926B2, “Metallotetrapyrrolic photosensitizing agents for use in photodynamic therapy” (Miravant Pharmaceuticals, Inc., priority 2001, dated 2004).
# Where two headings read alike, the source gives them in different places.
# Experiments:
# [1] = tested on: normal skin of CD Hairless male rats; format: in vivo, rat
# Outline: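 Liposomal egg yolk phospholipid photosensitizer given as single i.v. tail-vein bolus at 1, 1.5 and 2 μmol/kg; skin spots irradiated with 532 nm laser (150 mW/cm^2, 150J, 1 cm) at 1, 6, 24, 48, 96 hrs post injection. Value is time of last observed skin response spot.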
# [2] = tested on: V79 (Chinese Hamster Lung Fibroblasts) cells; experiment: In vitro cytotoxicity assay (light EC50, Alamar blue); format: cell-based
# Outline: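 V79 cells in phenol-free 5% FBS/DMEM exposed 24 h to photosensitizer at final 0.01–5.0 μM, six replicates, then washed and light-treated, with a dark plate as control. Survival by Alamar blue after 24 h dark incubation, read at 570/600 nm.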
# [3] = tested on: normal uninjured rat carotid arteries (medial and adventitial cell populations); experiment: In vivo rat carotid artery acellularity after PDT; parameters: species or system Sprague Dawley rats; conditions: for Max % rat Artery Accelularity: Table 3; for Max % Rat Artery Accelularity: Table 4, 575 nm (Pt 532 nm); for accelularity in rat artery at a four hour treatment point: 4 hrs post administration
# Outline: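 Metallated photosensitizers light-activated in normal uninjured rat left common carotid via balloon catheter introduced through femoral arteriotomy under isoflurane; excitation 575 nm (Ga, Zn, Al, Sn) or 532 nm (Pt). Arteries harvested 3 days post-treatment, H&E-stained; medial and adventitial cell density assessed by light microscopy.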
# [4] = Table 3 porphyrins, 24 h drug incubation, 532 nm, 1.25 J/cm^2, read-out: In Vitro EC50 Light
# [5] = drug dose 1 μMol, 50 J/cm^2, 3 days post treatment
# [6] = Table 4 azaporphyrins, 575 nm (Pt azaporphyrins 532 nm), 1.25 J/cm^2, read-out: In Vitro EC(50)
SMILES,"Normal skin Response (1 μmol) ([1]; rat, in vivo) [h]","EC50 [2, 4] [nM]","EC50 [2, 6] [nM]",Max % Rat Artery Accelularity ([3]; drug dose 1 μMol) [%],also measured
"CCC1=C(C)c2cc3[n-]c(cc4nc(cc5[n-]c(cc1n2)c(C)c5CC)C(C)=C4CCCOC)c(CCCOC)c3C.[Cl-].[In+3] [Example 75, Indium Chloride 8,13-diethyl-3,7,12,17-tetramethylporphyrin-2,18-di(3′-methoxypropyl)]",96,60,–,–,"Max % rat Artery Accelularity [3, 5]: 75%"
"CCC1=C(C)c2cc3[n-]c(cc4nc(cc5[n-]c(cc1n2)c(C)c5CC)C(C)=C4CCCN1CCCC1)c(CCCN1CCCC1)c3C.[Pt+2] [Example 77, Platinum 8,13-diethyl-3,7,12,17-tetramethylporphyrin-2,18-di(3-(N-pyrrolidino)propyl)]",–,100,–,–,"Normal skin Response (1 μmol) ([1]; Table 3, time of last skin spot observed post injection, 1 μmol, 532 nm laser): 96 h; Max % rat Artery Accelularity [3, 5]: 25%"
"CCC1=C(C)C2=[N+]3C1=Cc1c(C)c(CC)c4[n]1[Ga-2]31([OH])[n]3c(c(C)c(CCCNCCCO)c3=CC3=[N+]1C(=C4)C(C)=C3CCCNCCCO)=C2 [Example 78, Gallium Hydroxy 8,13-diethyl-3,7,12,17 tetramethylporphyrin-2,18-di((N-3′-hydoxypropyl)-3-aminopronpyl)]",6,1000,–,–,Max % rat Artery Accelularity ([3]; drug dose 2 μMol): 10%
"CCC1=C(CC)C2=[N+]3C1=Nc1c(CC)c(CC)c4[n]1[Sn-2]31([Cl])([Cl])[n]3c(c(C)c(CCC(=O)OC)c3=CC3=[N+]1C(=C4)C(C)=C3CCC(=O)OC)=C2 [Example 82, Tin(IV)dichloride 7,8,12,13-tetraethyl-12,17-dimethyl-10-azaporphyrin-2,18-di(propionic acid methyl ester)]",96,–,400,30,–
"CCC1=C(CC)C2=[N+]3C1=Nc1c(CC)c(CC)c4[n]1[In-2]31([Cl])[n]3c(c(C)c(CCC(=O)OC)c3=CC3=[N+]1C(=C4)C(C)=C3CCC(=O)OC)=C2 [Example 83, Indium Chloride 7,8,12,13-tetraethyl-12,17-dimethyl-10-azaporphyrin-2,18-di(propionic acid methyl ester)]",48,–,30,50,–
"CCC1=C(CC)C2=[N+]3C1=Nc1c(CC)c(CC)c4[n]1[Ga-2]31([Cl])[n]3c(c(C)c(CCC(=O)O)c3=CC3=[N+]1C(=C4)C(C)=C3CCC(=O)O)=C2 [Example 87, Gallium Chloride 7,8,12,13-tetraethyl-12,17-dimethyl-10-azaporphyrin-2,18-di(propionic acid)]",24,–,310,30,accelularity in rat artery at a four hour treatment point [3]: 30%
"CCOC(=O)CCC1=C(C)C2=Cc3c(CC)c(CC)c4[n]3[Ga-2]35([Cl])[n]6c(c(C)c(CCC(=O)OCC)c6=CC1=[N+]23)=CC1=[N+]5C(=N4)C(CC)=C1CC [Example 89, Gallium Chloride 7,8,12,13-tetraethyl-12,17-dimethyl-10-azaporphyrin-2,18-di(propionic acid ethyl ester)]",24,–,400,60,–
"CCC1=C(CC)C2=Nc3c(CC)c(CC)c4[n]3[Sn]([Cl])([Cl])[n]3c(c(C)c(CCC(=O)NC)c3=CC3=NC(=C4)C(C)=C3CCC(=O)NC)=CC1=N2 [Example 90, Tin (IV) Dichloride 7,8,12,13-tetraethyl-12,17-dimethyl-10-azaporphyrin-2,18-di(propionic acid methyl amide)]",96,–,500,30,–
"CCC1=C(CC)C2=Nc3c(CC)c(CC)c4[n]3[In]([Cl])[n]3c(c(C)c(CCC(=O)NC)c3=CC3=NC(=C4)C(C)=C3CCC(=O)NC)=CC1=N2 [Example 91, Indium Chloride 7,8,12,13-tetraethyl-12,17-dimethyl-10-azaporphyrin-2,18-di(propionic acid methyl amide)]",48,–,70,50,–
"CCC1=C(CC)C2=Nc3c(CC)c(CC)c4[n]3[Ga]([Cl])[n]3c(c(C)c(CCCC(=O)OC)c3=CC3=NC(=C4)C(C)=C3CCCC(=O)OC)=CC1=N2 [Example 108, Gallium Chloride 7,8,12,13-tetraethyl-12,17-dimethyl-10-azaporphyrin-2,18-di(butanoic acid methyl ester)]",–,–,400,55,"Normal skin Response (1 μmol) ([1]; Table 4, time of last skin spot observed post injection, 1 μmol): 24 h"
"CCC1=C(C)c2cc3[n-]c(cc4nc(cc5[n-]c(cc1n2)c(C)c5CC)C(C)=C4CCC(=O)[O-])c(CCC(=O)[O-])c3C.[Ga+3].[Na+].[Na+].[OH-] [Example 109, Gallium Hydroxy Mesoporphyrin Disodium Salt]",–,2400,–,–,"Normal skin Response (1 μmol) in hrs ([1]; rat, in vivo): none; normal skin response at the drug doses used ([1]; rat, in vivo): no observed normal skin response; acellularity following PDT of rat arteries at longer treatment times post injection ([3]; 16, 24 hrs post injection): significant acellularity; accelularity in rat artery at a four hour treatment point [3]: 10%; Max % rat Artery Accelularity ([3]; drug dose 1 μMol, 4 hrs): 10/4 hrs. %; Max % rat Artery Accelularity ([3]; drug dose 1 μMol, 24 hrs): 100/24 hrs %"
